What all share (test): NCI tumour cell line growth inhibition, 48 h
Assay [1] relates to OVCAR-8.
For assay [2], the system named is HOP-92.
In assay [3] the test system is RPMI-8226.
In assay [4] the test system is DU-145.
For assay [5], the system named is SK-MEL-28.
Assay [6] deals with Hs-578T.
In assay [7] the test system is SF-295.
Assay [8] concerns MDA-MB-435.
Assay [9] relates to HOP-62.
Assay [10] relates to COLO 205.
The test system of assay [11] is SW-620.
The subject of assay [12] is T47D.
For assay [13], the system named is UACC-257.
Assay [14] concerns SK-OV-3.
The test system of assay [15] is HT-29.
Assay [16] relates to MOLT-4.
The subject of assay [17] is OVCAR-4.
Assay [18] has as its system NCI-H460.
Assay [19] deals with HCT-116.
The subject of assay [20] is SNB-75.

Structures are written as SMILES.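 These data come from cells grown in 96-well plates and exposed to compound for 48 hours at five concentrations. Abbreviation: GI50, concentration required for 50% inhibition of growth.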 Active and inactive are the calls of the source. Rule as the data show it: active = GI50 up to about 1.1 µM and inactive = higher.

Consider `CCOC(=O)N/N=C(/OCC)c1ccccc1`, for which the GI50 in assay [1], in [2], in assay [3], in assay [4], in [5] and in [6] was > 100 µM (inactive) each time. The GI50 in assay [7], in [8], in assay [9], in assay [10], in assay [11] and in assay [12] was > 100 µM (inactive) each time. For the same molecule, the GI50 in assay [13], in assay [14], in [15], in assay [16], in assay [17] and in assay [18] was > 100 µM (inactive) in each case. Further, the GI50 in assay [19] is > 100 µM (inactive).
With `COC(=O)C1=CSC2(S1)C(C(=O)OC)=CSc1c2ss/c1=N\c1ccccc1` (stereo not given), the GI50 in [1] was 1.81 µM (inactive); in assay [3], 0.497 µM (active); in [4], 2.96 µM (inactive); in assay [20], 2.22 µM (inactive); in [5], 2.38 µM (inactive); in assay [6], 2.55 µM (inactive). The GI50 was 1.81 µM (inactive) in assay [7]; 1.78 µM (inactive) in [8]; 2.88 µM (inactive) in assay [9]; 2.16 µM (inactive) in assay [10]; 2.51 µM (inactive) in assay [11]; 7.64 µM (inactive) in assay [12]. Moreover, the GI50 is 2.43 µM (inactive) in assay [13]; 2.72 µM (inactive) in assay [14]; 2.48 µM (inactive) in assay [15]; 0.714 µM (active) in [16]; 1.87 µM (inactive) in assay [17]; 3.07 µM (inactive) in [18]. For the same molecule, in assay [19], the GI50 is 1.83 µM (inactive).
Take `Cc1cc(C)c(C)c(-n2[nH]c(=O)n(C)c2=O)c1C`: the GI50 in assay [1], in [2], in assay [3], in assay [4], in [5] and in assay [6] was > 100 µM (inactive) each time. For the same molecule, the GI50 in assay [7], in [8], in assay [9], in assay [10], in [11] and in [12] was > 100 µM (inactive) in each case. The GI50 in [13], in assay [14], in assay [15], in [16], in [18] and in assay [19] was > 100 µM (inactive) in each case.
As for `C[C@]12CC[C@H]3[C@@H](CCC4=CC(=O)CC[C@@]43C)[C@@H]1CC[C@@H]2C(=O)Nc1ccc([N+](=O)[O-])c(C(F)(F)F)c1`, the GI50 is 26.4 µM (inactive) in assay [1]; 39.8 µM (inactive) in assay [2]; 56.1 µM (inactive) in assay [3]; 20.7 µM (inactive) in assay [4]; 20.7 µM (inactive) in assay [5]; 18.2 µM (inactive) in assay [6]. For the same molecule, the GI50 in [7] was 17.1 µM (inactive); in assay [8], 18 µM (inactive); in [9] it was 29 µM (inactive); in assay [10] it was 18.2 µM (inactive); in [11], 20.9 µM (inactive); in assay [12], 15.6 µM (inactive). The GI50 in assay [13] was > 10 µM (inactive); in [14], 12.7 µM (inactive); in [15], 18.2 µM (inactive); in assay [16], 24.2 µM (inactive); in assay [17] it was 15.3 µM (inactive); in [18] it was 17.3 µM (inactive). In addition, the GI50 in assay [19] is 17.5 µM (inactive).
With `O=C(CC(C(=O)c1cccs1)c1ccsc1)c1ccc(Cl)cc1` (stereo not given), the GI50 in assay [1], in assay [3], in assay [4], in assay [20], in [5] and in assay [6] was > 100 µM (inactive) in each case. Besides, the GI50 in assay [7], in assay [8], in [9], in assay [10], in [11] and in [12] was > 100 µM (inactive) throughout. The GI50 in assay [13], in assay [14], in assay [15], in assay [16], in assay [17] and in assay [18] was > 100 µM (inactive) in each case. In addition, the GI50 in assay [19] is > 100 µM (inactive).
Take `O=c1[nH]nc(-c2ccccc2)c2[nH]c3c(c12)CCCc1ccccc1-3`: the GI50 in assay [1] is 17.4 µM (inactive); in [2], 13.3 µM (inactive); in [3], 11.5 µM (inactive); in assay [4], 17.6 µM (inactive); in assay [6] it was 17 µM (inactive); in assay [7], 20.7 µM (inactive). Further, the GI50 in [8] was 13 µM (inactive); in assay [9], 19.3 µM (inactive); in assay [10] it was 9.79 µM (inactive); in assay [11], 19.1 µM (inactive); in assay [12], 8.97 µM (inactive); in [13] it was 18.7 µM (inactive). Also, the GI50 in assay [14] is 52.2 µM (inactive); in [15], 11.3 µM (inactive); in [16] it was 10.9 µM (inactive); in [17], 12.9 µM (inactive); in [18] it was 16 µM (inactive); in assay [19] it was 13.2 µM (inactive).
On to `COC(=O)C(CNC(=O)/C=C/c1ccc(OC(C)=O)c(OC(C)=O)c1)NC(=O)/C=C/c1ccc(OC(C)=O)c(OC(C)=O)c1` (stereo not given), for which the GI50 in assay [1], in assay [2], in [3], in assay [4], in [5] and in assay [6] was > 100 µM (inactive) each time. Also, the GI50 in [7] was > 100 µM (inactive); in assay [8], > 100 µM (inactive); in assay [9], > 100 µM (inactive); in [10], > 100 µM (inactive); in assay [11], > 100 µM (inactive); in [12] it was 77.3 µM (inactive). In addition, the GI50 is > 100 µM (inactive) in assay [13]; 57.5 µM (inactive) in assay [14]; > 100 µM (inactive) in assay [15]; 30 µM (inactive) in assay [16]; > 100 µM (inactive) in assay [17]; > 100 µM (inactive) in assay [18]. Besides, in assay [19], the GI50 was > 100 µM (inactive).
On to `O=C(O)Cc1cc(O)c(CC(=O)O)cc1O`, for which the GI50 in [1], in [2], in assay [4], in [5], in [6] and in [7] was > 100 µM (inactive) in each case. For the same molecule, the GI50 in [8], in [9], in assay [11], in [12], in assay [13] and in assay [15] was > 100 µM (inactive) each time. Also, the GI50 in [16], in assay [17], in [18] and in assay [19] was > 100 µM (inactive) throughout.
Take `CC(=O)C12C[C@](C#N)(N3CCCCCC3)C1C=Cc1ccccc12` (stereo not given in full): the GI50 in assay [1], in [3], in [4], in assay [20], in assay [5] and in assay [6] was > 100 µM (inactive) in each case. For the same molecule, the GI50 in [7], in [8], in assay [9], in assay [10], in [11] and in assay [12] was > 100 µM (inactive) in each case. Further, the GI50 in assay [13], in assay [14], in [15], in [16], in [17] and in assay [18] was > 100 µM (inactive) throughout. Also, in assay [19], the GI50 was > 100 µM (inactive).
Consider `O=C1NCN(c2ccccc2)C12CCN(CC1COc3ccccc3O1)CC2` (stereo not given) [SPIROXATRINE], for which the GI50 in [1] was 69.3 µM (inactive); in [3], > 100 µM (inactive); in assay [4], 77.4 µM (inactive); in assay [20], 36.4 µM (inactive); in assay [5], > 100 µM (inactive); in assay [6] it was 23.5 µM (inactive). Besides, the GI50 in [7] was 33.8 µM (inactive); in [8] it was > 100 µM (inactive); in assay [9], 22.5 µM (inactive); in [10] it was > 100 µM (inactive); in assay [11], > 100 µM (inactive); in assay [12] it was 54 µM (inactive). Besides, the GI50 in assay [13] was 36.6 µM (inactive); in [14], 51.3 µM (inactive); in assay [15] it was > 100 µM (inactive); in assay [16], > 100 µM (inactive); in assay [17] it was 33.4 µM (inactive); in assay [18] it was > 100 µM (inactive). Besides, the GI50 in [19] was > 100 µM (inactive).
